Data published in patent US10961309B2, “Reducing systemic regulatory T cell levels or activity for treatment of disease and injury of the CNS” (Yeda Research and Development Co. Ltd, priority 2014, dated 2021).
“Also recorded” adds a separate entry of the source.

Experiments:
[1] = tested on: 5XFAD AD-Tg mice; assay: Radial arm water maze (RAWM); assay type: in vivo, mouse
Experimental: The radial-arm water maze (RAWM) was used to test spatial learning and memory, as was previously described in detail (Alamed et al, 2006). Briefly, six stainless steel inserts were placed in the tank, forming six swim arms radiating from an open central area. The escape platform was located at the end of one arm (the goal arm), 1.5 cm below the water surface, in a pool 1.1 m in diameter. The water temperature was kept between 21-22° C. Water was made opaque with milk powder. Within the testing room, only distal visual shape and object cues were available to the mice to aid in location of the submerged platform. The goal arm location remained constant for a given mouse. On day 1, mice were trained for 15 trials (spaced over 3 h), with trials alternating between a visible and hidden platform, and the last 4 trails with hidden platform only. On day 2, mice were trained for 15 trials with the hidden platform. Entry into an incorrect arm, or failure to select an arm within 15 sec, was scored as an error. Spatial learning and memory were measured by counting the number of arm entry errors or the escape latency of the mice on each trial. Training data were analyzed as the mean errors or escape latency, for training blocks of three consecutive trials.
At 10 months of age, 5XFAD Alzheimer's' disease (AD) transgenic (Tg) mice were injected i.p. with either 250 ug of anti-PD1 (RMP1-14; #BE0146; Bioxcell Lifesciences Pvt. LTD.) or control IgG (IgG2a; #BE0089; Bioxcell Lifesciences Pvt. LTD.) antibodies, on day 1 and day 4 of the experiment, and were examined 3 weeks after (schematically depicted in FIG. 11A) for their cognitive performance by radial arm water maze (RAWM) spatial learning and memory task, as was previously described in detail (Alamed et al, 2006). Briefly, on day 1 of the RAWM task, mice were trained for 15 trials (spaced over 3 h), with trials alternating between a visible and hidden platform, and the last 4 trails with hidden platform only. On day 2, mice were trained for 15 trials with the hidden platform. Entry into an incorrect arm, or failure to select an arm within 15 sec, was scored as an error. Spatial learning and memory were measured by counting the number of arm entry errors or the escape latency of the mice on each trial. Age matched untreated WT and AD-Tg mice were used as controls.

[2] = tested on: 5XFAD AD-Tg mice; assay: Morris water maze (MWM); assay type: in vivo, mouse
Experimental: Mice were given three trials per day, for 4 consecutive days, to learn to find a hidden platform located 1.5 cm below the water surface in a pool (1.1 m in diameter). The water temperature was kept between 21-22° C. Water was made opaque with milk powder. Within the testing room, only distal visual shape and object cues were available to the mice to aid in location of the submerged platform. The escape latency, i.e., the time required to find and climb onto the platform, was recorded for up to 60 s. Each mouse was allowed to remain on the platform for 15 s and was then removed from the maze to its home cage. […] The inter-trial interval for each mouse was 10 min. On day 5, the platform was removed, and mice were given a single trial lasting 60 s without available escape. On days 6 and 7, the platform was placed in the quadrant opposite the original training quadrant, and the mouse was retrained for three sessions each day. Data were recorded using the EthoVision V7.1 automated tracking system (Noldus Information Technology). Statistical analysis was performed using analysis of variance (ANOVA) and the Bonferroni post-hoc test. All MWM testing was performed between 10 a.m. and 5 p.m. during the lights-off phase.

For `CC1=C(/C=C/C(C)=C/C=C/C(C)=C/C(=O)O)C(C)(C)CCC1` [ATRA, All-trans retinoic acid], the “cognitive performance (spatial memory) in the RAWM” value ([1]; ATRA-treated vs vehicle-treated AD-Tg mice, 3 weeks after treatment) was “worsening of the spatial memory deficits”.

For Diphtheria toxin [DTx], the “spatial learning and memory (MWM)” value ([2]; AD-Tg/DTR+ vs DTx-treated AD-Tg/DTR− mice, 3 weeks after last DTx injection) was “better spatial learning/memory performance; also recorded: significant improvement in spatial learning and memory”.

With Glatiramer acetate [GA] the “cognitive performance (spatial memory) by the RAWM task” value ([1]; daily-GA 100 μg s.c. for 1 month, 7-month old 5XFAD AD-Tg mice) was “either no beneficial effect on spatial memory, or a tendency towards a worsening effect”, the “duration of improved cognitive performance after the treatment” value ([1]; weekly-GA, 5XFAD AD-Tg mice) was “up to 2 months” and the “cognitive performance by the RAWM task” value ([1]; weekly-GA, 7-month old 5XFAD AD-Tg mice) was “beneficial effect”. The “spatial learning/memory performance in acquisition, probe and reversal phases of the MWM” value ([2]; weekly-GA vs vehicle (PBS), AD-Tg mice, age 6 m) was “better spatial learning/memory performance” and the cognitive performance ([2]; weekly-GA, 5XFAD AD-Tg mice, MWM 1 week, RAWM 1 and 2 months after last injection) was “improved cognitive performance”.
